Test results: US9981959B2, “Thiazolyl and oxazolyl urea, thiourea, guanidine and cyanoguanidine compounds as TrkA kinase inhibitors” (Array BioPharma Inc., priority 2012, dated 2018)

Key:
CAMK2d = molecular target: T1, CAMK2d (Homo sapiens, UniProt Q13557); test: KinaseProfiler off-target kinase profiling; type: biochemical; conditions: 10 μM, ATP near Km
T1 construct: purchased Millipore (KinaseProfiler service)
Method in brief: (§1)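 The kinase was incubated with 10 μM compound and ATP near its Km. Two replicates were run, and their mean activity is given as percent of control.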

DMPK = molecular target: T2, DMPK (Homo sapiens, UniProt Q09013); test: KinaseProfiler off-target kinase profiling; type: biochemical; conditions: 10 μM, ATP near Km
T2 construct: purchased Millipore, Inc. (KinaseProfiler service)
Method in brief: as §1

Pim-2 = molecular target: T3, Pim-2 (Homo sapiens, UniProt Q9P1W9); test: KinaseProfiler off-target kinase profiling; type: biochemical; conditions: 10 μM, ATP near Km
T3 construct: purchased Millipore, Inc. (KinaseProfiler service)
T3 sequence (Q9P1W9 whole entry): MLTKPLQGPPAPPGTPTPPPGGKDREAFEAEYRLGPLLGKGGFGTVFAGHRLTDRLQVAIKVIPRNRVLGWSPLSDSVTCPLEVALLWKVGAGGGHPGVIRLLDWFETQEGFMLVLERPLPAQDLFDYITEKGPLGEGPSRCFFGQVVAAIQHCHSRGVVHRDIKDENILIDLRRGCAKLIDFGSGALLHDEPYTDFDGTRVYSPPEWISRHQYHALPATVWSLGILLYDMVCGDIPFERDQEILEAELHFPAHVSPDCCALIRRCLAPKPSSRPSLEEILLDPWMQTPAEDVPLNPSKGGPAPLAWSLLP
Method in brief: as §1

Flt1 = molecular target: T4, Flt1 (Homo sapiens, UniProt P17948); test: KinaseProfiler off-target kinase profiling; type: biochemical; conditions: 10 μM, ATP near Km
T4 construct: purchased Millipore, Inc. (KinaseProfiler service)
Method in brief: as §1

ROCK-I = molecular target: T5, ROCK-I (Homo sapiens, UniProt Q13464); test: KinaseProfiler off-target kinase profiling; type: biochemical; conditions: 10 μM, ATP near Km
T5 construct: purchased Millipore, Inc. (KinaseProfiler service)
Method in brief: as §1

PKCepsilon = molecular target: T6, PKCepsilon (Homo sapiens, UniProt Q02156); test: KinaseProfiler off-target kinase profiling; type: biochemical; conditions: 10 μM, ATP near Km
T6 construct: purchased Millipore, Inc. (KinaseProfiler service)
Method in brief: as §1

SIK = molecular target: T7, SIK (Homo sapiens, UniProt P57059); test: KinaseProfiler off-target kinase profiling; type: biochemical; conditions: 10 μM, ATP near Km
T7 construct: purchased Millipore, Inc. (KinaseProfiler service)
Method in brief: as §1

MSSK1 = molecular target: T8, MSSK1 (Homo sapiens, UniProt Q9UPE1); test: KinaseProfiler off-target kinase profiling; type: biochemical; conditions: 10 μM, ATP near Km
T8 construct: purchased Millipore, Inc. (KinaseProfiler service)
Method in brief: as §1

PKCzeta = molecular target: T9, PKCzeta (Homo sapiens, UniProt Q05513); test: KinaseProfiler off-target kinase profiling; type: biochemical; conditions: 10 μM, ATP near Km
T9 construct: purchased Millipore, Inc. (KinaseProfiler service)
Method in brief: as §1

Syk = molecular target: T10, Syk (Homo sapiens, UniProt P43405); test: KinaseProfiler off-target kinase profiling; type: biochemical; conditions: 10 μM, ATP near Km
T10 construct: purchased Millipore, Inc. (KinaseProfiler service)
Method in brief: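 Percent of control (POC) is reported as the mean of duplicate wells, with compound at 10 μM and ATP set near the Km of each kinase.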

MuSK = molecular target: T11, MuSK (Homo sapiens, UniProt O15146); test: KinaseProfiler off-target kinase profiling; type: biochemical; conditions: 10 μM, ATP near Km
T11 construct: purchased Millipore, Inc. (KinaseProfiler service)
Method in brief: as §1

JAK2 = molecular target: T12, JAK2 (Homo sapiens, UniProt O60674); test: KinaseProfiler off-target kinase profiling; type: biochemical; conditions: 10 μM, ATP near Km
T12 construct: purchased Millipore, Inc. (KinaseProfiler service)
Method in brief: as §1

EphB2 = molecular target: T13, EphB2 (Homo sapiens, UniProt P29323); test: KinaseProfiler off-target kinase profiling; type: biochemical; conditions: 10 μM, ATP near Km
T13 construct: purchased Millipore, Inc. (KinaseProfiler service)
T13 sequence (P29323 19-1055): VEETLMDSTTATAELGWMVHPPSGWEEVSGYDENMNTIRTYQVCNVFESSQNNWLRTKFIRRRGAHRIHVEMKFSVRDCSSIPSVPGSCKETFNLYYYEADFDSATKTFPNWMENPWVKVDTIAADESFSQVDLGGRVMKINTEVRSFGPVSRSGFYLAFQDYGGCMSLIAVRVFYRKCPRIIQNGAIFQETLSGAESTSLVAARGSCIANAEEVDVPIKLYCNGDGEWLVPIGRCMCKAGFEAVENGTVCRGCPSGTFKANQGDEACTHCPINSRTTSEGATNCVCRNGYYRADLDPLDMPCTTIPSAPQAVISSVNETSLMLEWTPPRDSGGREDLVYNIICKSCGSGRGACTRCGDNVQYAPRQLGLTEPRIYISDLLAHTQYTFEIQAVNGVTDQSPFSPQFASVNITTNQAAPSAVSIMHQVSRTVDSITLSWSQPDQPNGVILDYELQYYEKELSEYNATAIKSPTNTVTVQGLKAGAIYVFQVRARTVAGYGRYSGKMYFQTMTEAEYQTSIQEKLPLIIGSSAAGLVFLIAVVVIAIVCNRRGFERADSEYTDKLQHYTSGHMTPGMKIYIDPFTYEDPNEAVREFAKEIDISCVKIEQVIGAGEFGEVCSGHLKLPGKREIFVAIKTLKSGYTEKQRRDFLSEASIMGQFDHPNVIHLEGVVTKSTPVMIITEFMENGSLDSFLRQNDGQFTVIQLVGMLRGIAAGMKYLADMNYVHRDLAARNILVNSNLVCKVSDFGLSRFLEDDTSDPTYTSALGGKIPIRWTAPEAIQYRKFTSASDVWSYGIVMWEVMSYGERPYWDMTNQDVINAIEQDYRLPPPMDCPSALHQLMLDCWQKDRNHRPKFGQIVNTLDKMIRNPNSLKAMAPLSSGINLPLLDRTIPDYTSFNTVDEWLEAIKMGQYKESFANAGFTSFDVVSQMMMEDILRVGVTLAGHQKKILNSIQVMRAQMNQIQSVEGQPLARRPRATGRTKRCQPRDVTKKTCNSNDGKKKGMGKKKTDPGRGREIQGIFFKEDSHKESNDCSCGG
Method in brief: as §1

NEK6 = molecular target: T14, NEK6 (Homo sapiens, UniProt Q9HC98); test: KinaseProfiler off-target kinase profiling; type: biochemical; conditions: 10 μM, ATP near Km
T14 construct: purchased Millipore, Inc. (KinaseProfiler service)
Method in brief: as §1

MRCKalpha = molecular target: T15, MRCKalpha (Homo sapiens, UniProt Q5VT25); test: KinaseProfiler off-target kinase profiling; type: biochemical; conditions: 10 μM, ATP near Km
T15 construct: purchased Millipore, Inc. (KinaseProfiler service)
Method in brief: as §1

CK1gamma2 = molecular target: T16, CK1gamma2 (Homo sapiens, UniProt P78368); test: KinaseProfiler off-target kinase profiling; type: biochemical; conditions: 10 μM, ATP near Km
T16 construct: purchased Millipore, Inc. (KinaseProfiler service)
Method in brief: as §1

ALK4 = molecular target: T17, ALK4 (Homo sapiens, UniProt P36896); test: KinaseProfiler off-target kinase profiling; type: biochemical; conditions: 10 μM, ATP near Km
T17 construct: purchased Millipore (KinaseProfiler service)
Method in brief: as §1

Rsk1 = molecular target: T18, Rsk1 (Homo sapiens, UniProt Q15418); test: KinaseProfiler off-target kinase profiling; type: biochemical; conditions: 10 μM, ATP near Km
T18 construct: purchased Millipore, Inc. (KinaseProfiler service)
Method in brief: as §1

CAMK4 = molecular target: T19, CAMK4 (Homo sapiens, UniProt Q16566); test: KinaseProfiler off-target kinase profiling; type: biochemical; conditions: 10 μM, ATP near Km
T19 construct: purchased Millipore (KinaseProfiler service)
Method in brief: as §1

TrkB = molecular target: T20, TrkB (Homo sapiens, UniProt Q16620); test: KinaseProfiler off-target kinase profiling; type: biochemical; conditions: 10 μM, ATP near Km
T20 construct: purchased Millipore, Inc. (KinaseProfiler service)
T20 sequence (Q16620 32-822): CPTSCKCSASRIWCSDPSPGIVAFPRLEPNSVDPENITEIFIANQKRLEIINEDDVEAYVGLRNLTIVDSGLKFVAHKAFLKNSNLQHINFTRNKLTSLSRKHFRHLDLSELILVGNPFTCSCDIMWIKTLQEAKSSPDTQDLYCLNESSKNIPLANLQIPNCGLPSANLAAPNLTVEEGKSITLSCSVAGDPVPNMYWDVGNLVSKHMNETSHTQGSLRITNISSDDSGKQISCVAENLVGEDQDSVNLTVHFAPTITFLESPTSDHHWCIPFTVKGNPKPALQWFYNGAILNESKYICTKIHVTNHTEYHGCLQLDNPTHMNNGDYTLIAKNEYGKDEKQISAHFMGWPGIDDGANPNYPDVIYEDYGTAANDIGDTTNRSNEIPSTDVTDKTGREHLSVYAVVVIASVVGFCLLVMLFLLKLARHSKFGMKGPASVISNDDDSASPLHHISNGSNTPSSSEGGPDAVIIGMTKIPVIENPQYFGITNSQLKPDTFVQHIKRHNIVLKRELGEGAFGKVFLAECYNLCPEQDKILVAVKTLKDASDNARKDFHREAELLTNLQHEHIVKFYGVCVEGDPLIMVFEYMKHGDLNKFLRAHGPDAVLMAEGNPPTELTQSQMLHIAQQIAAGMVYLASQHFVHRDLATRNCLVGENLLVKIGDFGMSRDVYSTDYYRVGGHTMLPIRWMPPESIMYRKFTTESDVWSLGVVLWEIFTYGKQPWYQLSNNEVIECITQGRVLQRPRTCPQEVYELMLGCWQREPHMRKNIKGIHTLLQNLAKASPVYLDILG
Method in brief: as §1

Ron = molecular target: T21, Ron (Homo sapiens, UniProt Q04912); test: KinaseProfiler off-target kinase profiling; type: biochemical; conditions: 10 μM, ATP near Km
T21 construct: purchased Millipore, Inc. (KinaseProfiler service)
T21 sequence (Q04912 25-1400): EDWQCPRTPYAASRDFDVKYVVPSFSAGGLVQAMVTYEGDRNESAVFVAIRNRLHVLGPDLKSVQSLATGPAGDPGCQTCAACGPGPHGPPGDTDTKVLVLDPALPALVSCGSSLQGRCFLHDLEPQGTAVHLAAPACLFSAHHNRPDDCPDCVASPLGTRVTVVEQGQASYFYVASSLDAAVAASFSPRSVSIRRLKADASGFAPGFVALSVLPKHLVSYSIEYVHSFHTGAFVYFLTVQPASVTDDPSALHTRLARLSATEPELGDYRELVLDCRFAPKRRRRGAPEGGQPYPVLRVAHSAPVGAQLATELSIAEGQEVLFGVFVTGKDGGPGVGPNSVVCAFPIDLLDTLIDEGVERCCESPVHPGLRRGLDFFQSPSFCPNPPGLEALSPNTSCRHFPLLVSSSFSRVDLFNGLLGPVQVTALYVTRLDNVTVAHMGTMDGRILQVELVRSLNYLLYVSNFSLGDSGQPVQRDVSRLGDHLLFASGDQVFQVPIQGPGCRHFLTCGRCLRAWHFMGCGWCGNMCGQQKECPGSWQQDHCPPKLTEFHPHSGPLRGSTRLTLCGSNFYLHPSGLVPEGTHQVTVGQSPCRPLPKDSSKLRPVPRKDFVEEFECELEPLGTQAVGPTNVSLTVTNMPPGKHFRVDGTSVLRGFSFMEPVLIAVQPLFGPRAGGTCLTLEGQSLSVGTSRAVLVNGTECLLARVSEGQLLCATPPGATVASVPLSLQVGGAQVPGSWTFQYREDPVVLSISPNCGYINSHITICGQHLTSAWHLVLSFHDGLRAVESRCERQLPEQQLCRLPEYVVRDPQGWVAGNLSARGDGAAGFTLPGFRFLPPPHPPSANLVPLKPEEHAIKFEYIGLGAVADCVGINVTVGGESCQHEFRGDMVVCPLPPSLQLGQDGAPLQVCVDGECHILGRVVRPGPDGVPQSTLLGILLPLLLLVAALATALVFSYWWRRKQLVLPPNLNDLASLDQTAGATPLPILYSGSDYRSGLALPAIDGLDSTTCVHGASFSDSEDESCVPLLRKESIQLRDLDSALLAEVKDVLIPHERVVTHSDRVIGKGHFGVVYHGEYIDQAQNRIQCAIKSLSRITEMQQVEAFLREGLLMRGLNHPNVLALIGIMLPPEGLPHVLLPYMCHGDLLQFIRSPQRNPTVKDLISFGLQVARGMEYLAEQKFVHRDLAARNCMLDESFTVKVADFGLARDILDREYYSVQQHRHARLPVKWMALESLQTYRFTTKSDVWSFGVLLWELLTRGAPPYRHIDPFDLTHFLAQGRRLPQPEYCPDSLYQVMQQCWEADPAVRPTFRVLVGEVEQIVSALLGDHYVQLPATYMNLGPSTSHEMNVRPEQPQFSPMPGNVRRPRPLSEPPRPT
Method in brief: as §1

ITK = molecular target: T22, ITK (Homo sapiens, UniProt Q08881); test: KinaseProfiler off-target kinase profiling; type: biochemical; conditions: 10 μM, ATP near Km
T22 construct: purchased Millipore, Inc. (KinaseProfiler service)
T22 sequence (Q08881 whole entry): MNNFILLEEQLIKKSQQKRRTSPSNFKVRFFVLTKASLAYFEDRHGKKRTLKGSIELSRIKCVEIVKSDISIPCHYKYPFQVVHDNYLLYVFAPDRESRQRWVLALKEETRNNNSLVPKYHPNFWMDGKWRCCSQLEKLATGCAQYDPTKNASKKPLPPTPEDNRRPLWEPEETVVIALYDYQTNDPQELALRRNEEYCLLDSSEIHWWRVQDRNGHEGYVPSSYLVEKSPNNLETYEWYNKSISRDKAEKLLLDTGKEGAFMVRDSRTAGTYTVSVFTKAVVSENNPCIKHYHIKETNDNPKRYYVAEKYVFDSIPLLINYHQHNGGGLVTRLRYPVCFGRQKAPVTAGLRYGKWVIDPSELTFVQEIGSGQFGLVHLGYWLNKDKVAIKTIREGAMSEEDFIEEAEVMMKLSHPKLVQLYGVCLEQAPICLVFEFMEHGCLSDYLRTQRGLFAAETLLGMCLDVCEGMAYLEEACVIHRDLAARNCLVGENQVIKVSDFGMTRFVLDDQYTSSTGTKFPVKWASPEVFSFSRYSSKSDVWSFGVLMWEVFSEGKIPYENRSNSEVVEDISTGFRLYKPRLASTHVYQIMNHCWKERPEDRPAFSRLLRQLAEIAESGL
Method in brief: as §1

GRK7 = molecular target: T23, GRK7 (Homo sapiens, UniProt Q8WTQ7); test: KinaseProfiler off-target kinase profiling; type: biochemical; conditions: 10 μM, ATP near Km
T23 construct: purchased Millipore, Inc. (KinaseProfiler service)
Method in brief: as §1

TrkA [1] = molecular target: T24, TrkA (Homo sapiens, UniProt P04629); test: KinaseProfiler off-target kinase profiling; type: biochemical; parameters: purchased Millipore, Inc. (KinaseProfiler service); conditions: 10 μM, ATP near Km
Method: A representative compound of the invention (Example 2) was tested for off-target kinase activity at a concentration of 10 μM by Millipore, Inc. in their KinaseProfiler™ service against all the kinases available in their full kinase panel. The compound was run in duplicate at a concentration of ATP near the Km for each individual kinase according to Millipore's specifications.

TrkA [2] = molecular target: T24, TrkA; test: TrkA LanthaScreen Eu Kinase Binding Assay; parameters: 6HIS tagged cytoplasmic domain from Invitrogen, Cat. No. PV3144; purchased Invitrogen PV3144; conditions: averaged IC50; TR-FRET binding, 60 min, 22° C.; read-out: TrkA enzyme IC50
Method: TrkA binding activity was determined in a TrkA LanthaScreen™ Eu Kinase Binding Assay. 5 nM His-tagged recombinant human TrkA (6HIS tagged cytoplasmic domain from Invitrogen, Cat. No. PV3144) was incubated with 4 nM Alexa-Fluor® Tracer 236 (Invitrogen Cat. No. PV5592), 2 nM biotinylated anti-His (Invitrogen Cat. No. PV6090), and 2 nM europium-labeled Streptavidin (Invitrogen Cat. No. PV5899), in buffer (25 mM MOPS, pH 7.5, 5 mM MgCl2, 0.005% Triton X-100). Three fold serial dilutions of compounds of the invention in DMSO were added to a final percentage of 2% DMSO. After 60-minute incubation at 22° C., the reaction was measured using the EnVision mutlimode plate reader (PerkinElmer) via TR-FRET dual wavelength detection at […]. The percent of control was calculated using a ratiometric emission factor. The IC50 values were determined by fitting a four parameter model to the percent of control data.
Table A provides averaged IC50 values for compounds of the invention when tested in the assay of Example A, where A represents an averaged IC50 value <100 nM; and B represents an averaged IC50 value from 100 to 1,000 nM.
Target sequence in this assay (P04629 440-796 limits assumed): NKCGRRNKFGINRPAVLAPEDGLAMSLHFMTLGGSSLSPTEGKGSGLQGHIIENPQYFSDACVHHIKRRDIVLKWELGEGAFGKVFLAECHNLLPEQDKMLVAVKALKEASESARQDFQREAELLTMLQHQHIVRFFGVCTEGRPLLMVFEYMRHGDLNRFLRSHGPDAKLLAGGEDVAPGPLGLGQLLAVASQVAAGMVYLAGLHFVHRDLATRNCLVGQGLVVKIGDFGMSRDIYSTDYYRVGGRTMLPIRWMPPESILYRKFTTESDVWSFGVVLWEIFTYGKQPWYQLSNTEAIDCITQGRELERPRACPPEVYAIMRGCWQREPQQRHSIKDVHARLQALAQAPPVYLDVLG

T1 sequence (Q13557 whole entry): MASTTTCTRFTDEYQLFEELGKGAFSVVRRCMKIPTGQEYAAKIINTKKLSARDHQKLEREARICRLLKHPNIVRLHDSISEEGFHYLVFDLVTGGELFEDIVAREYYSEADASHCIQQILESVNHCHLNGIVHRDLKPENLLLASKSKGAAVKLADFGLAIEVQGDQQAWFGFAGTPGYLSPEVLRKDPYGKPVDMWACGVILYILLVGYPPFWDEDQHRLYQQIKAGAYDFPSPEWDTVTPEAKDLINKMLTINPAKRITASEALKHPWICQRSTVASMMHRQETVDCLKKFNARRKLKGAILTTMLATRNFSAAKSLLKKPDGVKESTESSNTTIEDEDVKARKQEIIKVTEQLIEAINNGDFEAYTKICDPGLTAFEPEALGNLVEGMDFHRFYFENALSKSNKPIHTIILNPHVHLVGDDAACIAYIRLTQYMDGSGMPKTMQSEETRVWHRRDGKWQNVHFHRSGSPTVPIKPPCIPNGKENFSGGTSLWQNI

SMILES: Cc1c(-c2cnn(C)c2)nn(-c2ccccc2)c1NC(=O)Nc1sc(C(F)(F)F)nc1-c1ccccc1 [Example 2, 1-(1′,4-dimethyl-1-phenyl-1H,1′H-[3,4′-bipyrazol]-5-yl)-3-(4-phenyl-2-(trifluoromethyl)thiazol-5-yl)urea]
- Avg POC (CAMK2d): 118 POC
- Avg POC (DMPK): 107.5 POC
- Avg POC (Pim-2): 142.5 POC
- Avg POC (Flt1): 104 POC
- Avg POC (ROCK-I): 113 POC
- Avg POC (PKCepsilon): 102 POC
- Avg POC (SIK): 145 POC
- Avg POC (MSSK1): 132 POC
- Avg POC (PKCzeta): 108 POC
- Avg POC (Syk): 127.5 POC
- Avg POC (MuSK): 88 POC
- Avg POC (JAK2): 147.5 POC
- Avg POC (EphB2): 119 POC
- Avg POC (NEK6): 117.5 POC
- Avg POC (MRCKalpha): 147.5 POC
- Avg POC (CK1gamma2): 110 POC
- Avg POC (ALK4): 107 POC
- Avg POC (Rsk1): 123.5 POC
- Avg POC (CAMK4): 132.5 POC
- Avg POC (TrkB): 3 POC
- Avg POC (Ron): 110.5 POC
- Avg POC (ITK): 125.5 POC
- Avg POC (GRK7): 112 POC
- Avg POC (TrkA [1]): −1 POC
- IC50 (TrkA [2]): < 100 nM
